Test results reported in patent US9096598B2 (Merck Sharp & Dohme Corp., priority 2011, dated 2015).

Legend:
JAK2 = target: T1, JAK2 (Homo sapiens, UniProt O60674); assay: Jak Biochemical HTRF Assay (JAK2); conditions: recombinant purified GST-tagged catalytic domain, [ATP] 8.5 μM, values given as range classes
T1 construct: recombinant purified GST-tagged catalytic domain for each enzyme; purchased Invitrogen M4290
Experimental: (§1) Jak Biochemical HTRF Assay Protocol
(§2) The ability of compounds to inhibit the activity of JAK1, JAK2, JAK3, and Tyk2 was measured using a recombinant purified GST-tagged catalytic domain for each enzyme (Invitrogen JAK1 #M4290, JAK2 #M4290, JAK3 #M4290, Tyk2 #M4290) in an HTRF format biochemical assay. The reactions employed a common peptide substrate, LCB-EQEDEPEGDYFEWLW-NH2 (in-house). The basic assay protocol is as follows: First, 250 nL of diluted compounds in DMSO were dispensed into the wells of a dry 384-well Black plate (Greiner #781076) using a Labcyte Echo 555 acoustic dispenser. Subsequent reagent additions employed an Agilent Bravo. Next, 18 μL of 1.11× enzyme and 1.11× substrate in 1× assay buffer (Invitrogen kinase buffer #PV3189, 2 mM DTT, 0.05% BSA) were added to the wells and shaken and then preincubated for 30 minutes at room temperature to allow compound binding to equilibrate. After equilibration, 2 μL of 10×ATP in 1× assay buffer was added to initiate the kinase reaction and the plates were shaken and then incubated at room temperature for 120 minutes. At the end of the incubation, 20 μL of 2× stop buffer (streptavidin-Dylight 650 (Thermo #84547B/100 mL), Eu-tagged pY20 antibody (Perkin Elmer #AD0067), EDTA, HEPES, and Triton) was added to quench the reaction. Plates were shaken and centrifuged and then incubated 60 minutes at room temperature and then read on a Perkin Elmer Envision (λex=337 nm, λem=665 and 615 nm, TRF delay time=20 μs). HTRF signal=10,000*665 nm reading/615 nm reading. After normalization to untreated controls, the percent inhibition of the HTRF signal at each compound concentration was calculated. The plot of percent inhibition versus the log of compound concentration was fit with a 4-parameter dose response equation to calculate IC50 values.
(§3) Final reaction conditions were:
(§4) Examples of the instant invention were evaluated in JAK2 and JAK3 in vitro binding assays. Table 13 tabulates the biological data disclosed for the instant invention as a range of JAK2 and JAK3 IC50 values (A: IC50≦10 nM; B: 10 nM>IC50≦500 nM C: IC50>500 nM).

JAK3 = target: T2, JAK3 (Homo sapiens, UniProt P52333); assay: Jak Biochemical HTRF Assay (JAK3); conditions: recombinant purified GST-tagged catalytic domain, [ATP] 2.9 μM, values given as range classes
T2 construct: recombinant purified GST-tagged catalytic domain for each enzyme; purchased Invitrogen M4290
T2 sequence (P52333 822-1111 limits assumed): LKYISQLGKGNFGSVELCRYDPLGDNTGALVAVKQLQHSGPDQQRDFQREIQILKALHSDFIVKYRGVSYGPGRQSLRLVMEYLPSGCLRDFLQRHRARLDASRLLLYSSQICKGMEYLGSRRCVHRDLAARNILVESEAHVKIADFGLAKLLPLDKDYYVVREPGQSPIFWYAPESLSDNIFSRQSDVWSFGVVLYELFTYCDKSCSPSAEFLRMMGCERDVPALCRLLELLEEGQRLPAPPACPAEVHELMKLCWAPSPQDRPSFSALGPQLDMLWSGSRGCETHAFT
Experimental: as §1, §2, §3, §4

T1 sequence (O60674 849-1124 limits assumed): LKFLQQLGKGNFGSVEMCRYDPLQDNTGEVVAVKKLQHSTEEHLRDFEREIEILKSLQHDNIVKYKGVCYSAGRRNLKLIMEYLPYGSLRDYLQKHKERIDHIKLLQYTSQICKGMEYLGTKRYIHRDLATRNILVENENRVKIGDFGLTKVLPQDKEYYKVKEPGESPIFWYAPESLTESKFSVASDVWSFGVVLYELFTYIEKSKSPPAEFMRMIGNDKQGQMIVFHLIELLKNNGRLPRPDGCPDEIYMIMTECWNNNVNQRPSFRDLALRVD

Structure (SMILES)	IC50 (JAK2) [µM]	IC50 (JAK3) [µM]
CC(C)[C@@H](Nc1cncc(-c2c[nH]c3ncc(CN4CCCC4)cc23)c1)C(=O)NCC(F)(F)F [Example 9-7, N~2~-{5-[5-(pyrrolidin-1-ylmethyl)-1H-pyrrolo[2,3-b]pyridin-3-yl]pyridin-3-yl}-N-(2,2,2-trifluoroethyl)-D-valinamide]	0.01 to 0.5	0.01 to 0.5
O=C(NCC(F)(F)F)[C@H]1CCCC[C@H]1Nc1cnnc(-c2c[nH]c3ncc(Cl)cc23)n1 [Example 1-19, (1S,2R)-2-{[3-(5-chloro-1H-pyrrolo[2,3-b]pyridin-3-yl)-1,2,4-triazin-5-yl]amino}-N-(2,2,2-trifluoroethyl)cyclohexane-carboxamide]	0.01 to 0.5	0.01 to 0.5
CC(C)[C@H](Nc1cncc(-c2c[nH]c3ncc(OC4CCCC4)cc23)c1)C(=O)NCC(F)(F)F [Example 2-5, N~2~-{5-[5-(cyclopentyloxy)-1H-pyrrolo[2,3-b]pyridin-3-yl]pyridin-3-yl}-N-(2,2,2-trifluoroethyl)valinamide]	0.01 to 0.5	≤ 0.01
N#Cc1cnc2[nH]cc(-c3nncc(N4CCCC4c4nccs4)n3)c2c1 (centres unmarked) [Example 1-12, 3-{5-[2-(1,3-thiazol-2-yl)pyrrolidin-1-yl]-1,2,4-triazin-3-yl}-1H-pyrrolo[2,3-b]pyridine-5-carbonitrile]	0.01 to 0.5	0.01 to 0.5
C[C@@H](Nc1cncc(-c2c[nH]c3ncc(C#N)cc23)c1)C(=O)NCC(F)(F)F [Example 1-32, N~2~-[5-(5-cyano-1H-pyrrolo[2,3-b]pyridin-3-yl)pyridin-3-yl]-N-(2,2,2-trifluoroethyl)-D-alaninamide]	0.01 to 0.5	≤ 0.01
O=C(NCC(F)(F)F)C(Nc1cncc(-c2c[nH]c3ncc(Cl)cc23)c1)C1CC1 (centres unmarked) [Example 1-48, 2-{[5-(5-chloro-1H-pyrrolo[2,3-b]pyridin-3-yl)pyridin-3-yl]amino}-2-cyclopropyl-N-(2,2,2-trifluoroethyl)acetamide]	0.01 to 0.5	≤ 0.01
C[C@@H](Nc1cncc(-c2c[nH]c3ncc(Cl)cc23)c1)C(=O)NCC(F)(F)F [Example 1-29, N~2~-[5-(5-chloro-1H-pyrrolo[2,3-b]pyridin-3-yl)pyridin-3-yl]-N-(2,2,2-trifluoroethyl)-D-alaninamide]	0.01 to 0.5	≤ 0.01
Clc1cnc2[nH]cc(-c3nncc(N4CCCC4c4nccs4)n3)c2c1 (centres unmarked) [Example 1-5, 5-chloro-3-{5-[2-(1,3-thiazol-2-yl)pyrrolidin-1-yl]-1,2,4-triazin-3-yl}-1H-pyrrolo[2,3-b]pyridine]	0.01 to 0.5	0.01 to 0.5
CC(C)[C@@H](Nc1cncc(-c2c[nH]c3ncc(COCCN4CCCC4)cc23)c1)C(=O)NCC(F)(F)F [Example 9-1, (R)-3-methyl-2-(5-(5-((2-(pyrrolidin-1-yl)ethoxy)methyl)-1H-pyrrolo[2,3-b]pyridin-3-yl)pyridin-3-ylamino)-N-(2,2,2-trifluoroethyl)butanamide]	0.01 to 0.5	0.01 to 0.5
CC(C)[C@H](Nc1cncc(-c2c[nH]c3ncc(-c4cnn(C)c4)cc23)c1)C(=O)NCC(F)(F)F [Example 8-2, N^2-{5-[5-(1-methyl-1H-pyrazol-4-yl)-1H-pyrrolo[2,3-b]pyridin-3-yl]pyridin-3-yl}-N-(2,2,2-trifluoroethyl)-L-valinamide]	0.01 to 0.5	0.01 to 0.5
CC(C)[C@@H](Nc1cncc(-c2c[nH]c3ncc(C(=O)N4CCC(O)CC4)cc23)c1)C(=O)NCC(F)(F)F [Example 3-13, N~2~-(5-{5-[(4-hydroxypiperidin-1-yl)carbonyl]-1H-pyrrolo[2,3-b]pyridin-3-yl}pyridin-3-yl)-N-(2,2,2-trifluoroethyl)-D-valinamide]	> 0.5	0.01 to 0.5
CC(C)[C@@H](Nc1cncc(-c2c[nH]c3ncc(-c4cnn(C)c4)cc23)c1)C(=O)NCC(F)(F)F [Example 8-3, N^2-{5-[5-(1-methyl-1H-pyrazol-4-yl)-1H-pyrrolo[2,3-b]pyridin-3-yl]pyridin-3-yl}-N-(2,2,2-trifluoroethyl)-D-valinamide]	≤ 0.01	≤ 0.01
CC(C)C(Nc1cncc(-c2c[nH]c3ncc(C(N)=O)cc23)c1)C(=O)NCC(F)(F)F (centres unmarked) [Example 1-42, 3-[5-({2-methyl-1-[(2,2,2-trifluoroethyl)carbamoyl]propyl}amino)pridin-3-yl]-1H-pyrrolo[2,3-b]pyridine-5-carboxamide]	0.01 to 0.5	≤ 0.01
CC(C)CNC(=O)c1cnc2[nH]cc(-c3cncc(N[C@@H](C(=O)NCC(F)(F)F)C(C)C)c3)c2c1 [Example 3-7, N-(2-methylpropyl)-3-[5-({(1R)-2-methyl-1-[(2,2,2-trifluoroethyl)carbamoyl]propyl}amino)pyridin-3-yl]-1H-pyrrolo[2,3-b]pyridine-5-carboxamide]	0.01 to 0.5	≤ 0.01
CC(C)[C@@H](Nc1cncc(-c2c[nH]c3ncc(C(=O)NCC4(O)CC4)cc23)c1)C(=O)NCC(F)(F)F [Example 3-14, N-[(1-hydroxycyclopropyl)methyl]-3-[5-({(1R)-2-methyl-1-[(2,2,2-trifluoroethyl)carbamoyl]propyl}amino)pyridin-3-yl]-1H-pyrrolo[2,3-b]pyridine-5-carboxamide]	≤ 0.01	≤ 0.01
CC(C)[C@H](Nc1cncc(-c2c[nH]c3ncc(OCCCN(C)C)cc23)c1)C(=O)NCC(F)(F)F [Example 2-14, N~2~-(5-{5-[3-(dimethylamino)propoxy]-1H-pyrrolo[2,3-b]pyridin-3-yl}pyridin-3-yl)-N-(2,2,2-trifluoroethyl)valinamide]	0.01 to 0.5	≤ 0.01
C[C@@H](Nc1cnnc(-c2c[nH]c3ncc(Cl)cc23)c1)C(=O)NCC(F)(F)F [Example 1-24, N~2~-[6-(5-chloro-1H-pyrrolo[2,3-b]pyridin-3-yl)pyridazin-4-yl]-N-(2,2,2-trifluoroethyl)-D-alaninamide]	0.01 to 0.5	≤ 0.01
CC(C)[C@@H](Nc1cncc(-c2c[nH]c3ncc(Cl)cc23)c1)C(=O)NCC(F)(F)F (single isomer, unassigned) [Example 1-1]	0.01 to 0.5	≤ 0.01
CC(C)[C@@H](Nc1cncc(-c2c[nH]c3ncc(COCCN4CCOCC4)cc23)c1)C(=O)NCC(F)(F)F [Example 9-4, N~2~-(5-{5-[(2-morpholin-4-ylethoxy)methyl]-1H-pyrrolo[2,3-b]pyridin-3-yl}pyridin-3-yl)-N-(2,2,2-trifluoroethyl)-D-valinamide]	0.01 to 0.5	≤ 0.01
CC(C)[C@H](Nc1cncc(-c2c[nH]c3ncc(OCc4cccnc4)cc23)c1)C(=O)NCC(F)(F)F [Example 2-11, N~2~-{5-[5-(pyridin-3-ylmethoxy)-1H-pyrrolo[2,3-b]pyridin-3-yl]pyridin-3-yl}-N-(2,2,2-trifluoroethyl)valinamide]	0.01 to 0.5	≤ 0.01
Clc1cnc2[nH]cc(-c3cc(N4CCCC4c4nccs4)cnn3)c2c1 (centres unmarked) [Example 1-26, 5-chloro-3-{5-[2-(1,3-thiazol-2-yl)pyrrolidin-1-yl]pyridazin-3-yl}-1H-pyrrolo[2,3-b]pyridine]	0.01 to 0.5	0.01 to 0.5
CC(C)C(Nc1cncc(-c2c[nH]c3ncc(OC4CCN(C)CC4)cc23)c1)C(=O)NCC(F)(F)F (centres unmarked) [Example 2-16, N~2~-(5-{5-[(1-methylpiperidin-4-yl)oxy]-1H-pyrrolo[2,3-b]pridin-3-yl}pyridin-3-yl)-N-(2,2,2-trifluoroethyl)valinamide]	0.01 to 0.5	≤ 0.01
CCCC(=O)NCc1cnc2[nH]cc(-c3cncc(N[C@H](C(=O)NCC(F)(F)F)C(C)C)c3)c2c1 [Example 10-9, N~2~-(5-{5-[(butanoylamino)methyl]-1H-pyrrolo[2,3-b]pyridin-3-yl}pyridin-3-yl)-N-(2,2,2-trifluoroethyl)valinamide]	> 0.5	0.01 to 0.5
CC(C)[C@@H](Nc1cncc(-c2c[nH]c3ncc(COC4CCN(C(=O)OC(C)(C)C)CC4)cc23)c1)C(=O)NCC(F)(F)F [Example 9-6, tert-butyl 4-({3-[5-({(1R)-2-methyl-1-[(2,2,2-trifluoroethy)carbamoyl]propyl}amino)pyridin-3-yl]-1H-pyrrolo[2,3-b]pyridin-5-yl}methoxy)piperidine-1-carboxylate]	0.01 to 0.5	≤ 0.01
CC(C)[C@H](Nc1cncc(-c2c[nH]c3ncc(OC4CCOCC4)cc23)c1)C(=O)NCC(F)(F)F [Example 2-9, N~2~-{5-[5-(tetrahydro-2H-pyran-4-yloxy)-1H-pyrrolo[2,3-b]pyridin-3-yl]pyridin-3-yl}-N-(2,2,2-trifluoroethyl)valinamide]	0.01 to 0.5	≤ 0.01
